Data reported in US9133218B2, “Pesticidally active pyridyl- and pyrimidyl-substituted thiazole derivatives” (Syngenta Participations AG, priority 2012, dated 2015).
Read-outs that look alike come from different tables or passages of the source.

Tests used:
Assay type in all cases: in vivo
[1] = system: Myzus persicae (Green Peach Aphid); experiment: Activity against Myzus persicae (green peach aphid), sunflower leaf disc spray test; details: foliar, 144 h, read-out: activity (mortality) against Myzus persicae
Source text: Activity Against Myzus persicae (Green Peach Aphid)

[2] = system: Bemisia tabaci (Cotton White Fly); experiment: Activity against Bemisia tabaci (cotton white fly), cotton leaf disc spray test; details: foliar, 144 h, read-out: activity (mortality and special effects) against Bemisia tabaci
Procedure: Activity Against Bemisia tabaci (Cotton White Fly)
(§1) Cotton leaf discs were placed on agar in a 24-well microtiter plate and sprayed with test solutions. After drying, the leaf discs were infested with 12 to 18 adults. After an incubation period of 6 days after infestation, samples were checked for mortality and special effects (e.g. phytotoxicity).

[3] = system: Tetranychusurticae (Two-Spotted Spider Mite); experiment: whole plant or invertebrate; details: Tetranychus urticae, foliar, 192 h, read-out: activity (egg, larval and adult mortality) against Tetranychus urticae
Source text: Activity Against Tetranychusurticae (Two-Spotted Spider Mite)
Bean leaf discs on agar in 24-well microtiter plates are sprayed with test solutions. After drying, the leaf discs are infested with mite populations of mixed ages. 8 days later, discs are checked for egg mortality, larval mortality, and adult mortality.

[4] = system: Aedes aegypti (Yellow Fever Mosquito); experiment: whole plant or invertebrate; details: 200 ppm in ethanol, adult females, after 48 h and/or 24 h, read-out: control of Aedes aegypti (mortality)
Procedure: Aedes aegypti (Yellow Fever Mosquito)
(§2) Test solutions, at an application rate of 200 ppm in ethanol, were applied to 12 well tissue culture plates. Once the deposits were dry, five, two to five day old adult female Aedes aegypti were added to each well, and sustained with a 10% sucrose solution in a cotton wool plug. Mortality was assessed at 24 and 48 hours after introduction. The following compounds gave at least 80% control of Aedes aegypti after 48 h and/or 24 h: No. 1.026, 1.027, 1.030 and 1.025.

[5] = system: Anopheles stephensi (Indian Malaria Mosquito); experiment: Anopheles stephensi (Indian malaria mosquito) contact test on treated plates; details: 200 ppm in ethanol, adult females, after 48 h and/or 24 h, read-out: control of Anopheles stephensi (mortality)
Procedure: Anopheles stephensi (Indian Malaria Mosquito)
as §2, with “Anopheles stephensi” for “Aedes aegypti”, “1.026” for “1.026, 1.027, 1.030”, “1.030.” for “1.025.”

[6] = system: Spodoptera littoralis (Egyptian Cotton Leaf Worm); experiment: Activity against Spodoptera littoralis (Egyptian cotton leaf worm), systemic lettuce test; details: 120 h, systemic via lettuce roots, 5 days after infestation, read-out: activity (mortality, repellent effect, feeding behavior, growth regulation) against Spodoptera littoralis
Source text: Activity Against Spodoptera littoralis (Egyptian Cotton Leaf Worm)
Test compounds were applied by pipette into 24 well plates and mixed with agar. Lettuce seeds were placed on the agar and the multi well plate is closed by another plate which contains also agar. After 7 days the roots have absorbed the compound and the lettuce has grown into the lid plate. The lettuce leafs were now cut off into the lid plate. Spodoptera eggs were pipetted through a plastic stencil on a humid gel blotting paper and the plate closed with it. The samples are checked for mortality, repellent effect, feeding behavior, and growth regulation 5 days after infestation.

[7] = system: Heliothis virescens (Tobacco Budworm); experiment: Activity against Heliothis virescens (tobacco budworm), eggs on artificial diet; details: eggs 0-24 h old, 4 days incubation, read-out: activity (egg mortality, larval mortality, growth regulation) against Heliothis virescens
Procedure: Activity Against Heliothis virescens (Tobacco Budworm)
Eggs (0-24 h old) are placed in 24-well microtiter plate on artificial diet and treated with test solutions by pipetting. After an incubation period of 4 days, samples are checked for egg mortality, larval mortality, and growth regulation.

[8] = system: Frankliniellaoccidentalis (Western Flower Thrips); experiment: Activity against Frankliniella occidentalis (western flower thrips), sunflower leaf disc spray test; details: foliar, 168 h, mixed-age population, 7 days after treatment, read-out: activity (mortality and special effects) against Frankliniella occidentalis
Procedure: Activity Against Frankliniellaoccidentalis (Western Flower Thrips)
as §1, with “Sunflower” for “Cotton”, “are” for “were”, “a Frankliniella population of mixed ages.” for “12 to 18 adults.”, “7” for “6”, “treatment,” for “infestation,”

[9] = 200 ppm, mixed-age aphid population, 6 days incubation
[10] = 200 ppm, adults, 6 days after infestation

Row | Compound | mortality at 200 ppm [1, 9] | mortality at 200 ppm [2, 10] | further results
1 | Cc1nc(-c2cccnc2)sc1-c1ccc2c(n1)/C(=N/Nc1ccc(F)cc1)CCC2 [Compound 6.029] | > 80% |  | 
2 | CCCO/N=C1\CCCc2ccc(-c3sc(-c4cccnc4)nc3C)nc21 [Compound 1.028] | > 80% | > 80% | mortality at 200 ppm [3]: > 80%
3 | CO/N=C1\CCCc2ccc(-c3sc(-c4cccnc4)nc3C)nc21 [Compound 1.026] | > 80% | > 80% | mortality at 200 ppm [4]: ≥ 80%; mortality at 200 ppm [5]: ≥ 80%
4 | CCO/N=C1\CCOc2ccc(-c3sc(-c4cccnc4)nc3C)nc21 [Compound 1.033] | > 80% | > 80% | 
5 | CCO/N=C1\CCCc2ccc(-c3cnc(-c4cccnc4)s3)nc21 [Compound 1.003] | > 80% | > 80% | 
6 | Cc1nc(-c2cccnc2)sc1-c1ccc2c(n1)/C(=N/OCc1ccccc1)CCC2 [Compound 1.068] | > 80% |  | 
7 | Cc1nc(-c2cccnc2)sc1-c1ccc2c(n1)/C(=N/OCc1cc(C(F)(F)F)cc(C(F)(F)F)c1)CCC2 [Compound 1.067] |  |  | mortality at 12.5 ppm [6]: > 80%
8 | Cc1nc(-c2cccnc2)sc1-c1ccc2c(n1)/C(=N/OCC1CCCCC1)CCC2 [Compound 1.064] | > 80% |  | 
9 | Cc1nc(-c2cccnc2)sc1-c1ccc2c(n1)/C(=N/OCC(F)F)CCC2 [Compound 1.050] | > 80% |  | mortality at 12.5 ppm [6]: > 80%
10 | Cc1nc(-c2cccnc2)sc1-c1ccc2c(n1)/C(=N\NCC(F)(F)F)CCC2 [Compound 6.033] | > 80% |  | mortality at 200 ppm [7]: > 80%
11 | COC(=O)N(C)/N=C1\CCOc2ccc(-c3sc(-c4cccnc4)nc3C)nc21 [Compound 6.019] |  |  | mortality at 200 ppm [1]: > 80%; mortality at 200 ppm [2]: > 80%
12 | CO/N=C1\CCCc2ccc(-c3cnc(-c4cccnc4)s3)nc21 [Compound 1.002] | > 80% | > 80% | mortality at 200 ppm [7]: > 80%; mortality at 200 ppm [8]: > 80%
13 | Cc1nc(-c2cccnc2)sc1-c1ccc2c(n1)/C(=N/OCC1OCCO1)CCC2 [Compound 1.066] | > 80% |  | 
14 | CCO/N=C1\CCSc2sc(-c3sc(-c4cccnc4)nc3C)nc21 [Compound 3.051] | > 80% | > 80% | 
15 | Cc1nc(-c2cccnc2)sc1-c1ccc2c(n1)/C(=N/OCCCC1OCCO1)CCC2 [Compound 1.051] | > 80% |  | 
16 | CO/N=C1\CCOc2ccc(-c3sc(-c4cccnc4)nc3C)nc21 [Compound 1.032, N-methoxy-6-[4-methyl-2-(3-pyridyl)thiazol-5-yl]-2,3-dihydropyrano[3,2-b]pyridin-4-imine] | > 80% | > 80% | 
17 | CO/N=C1\CCSc2sc(-c3sc(-c4cccnc4)nc3C)nc21 [Compound 3.050, N-methoxy-2-[4-methyl-2-(3-pyridyl)thiazol-5-yl]-5,6-dihydrothiopyrano[3,2-d]thiazol-7-imine] | > 80% | > 80% | 
18 | COc1ccc(N/N=C2\CCCc3ccc(-c4sc(-c5cccnc5)nc4C)nc32)cc1 [Compound 6.034] | > 80% |  | 
19 | CCO/N=C1\CCCc2ccc(-c3sc(-c4cccnc4)nc3C)nc21 [Compound 1.027] | > 80% | > 80% | mortality at 200 ppm [4]: ≥ 80%

Row | Compound | mortality at 200 ppm [1, 9] | mortality at 200 ppm [2, 10] | further results
20 | Cc1nc(-c2cccnc2)sc1-c1ccc2c(n1)/C(=N/OCCc1ccc(F)cc1)CCC2 [Compound 1.053] | > 80% |  | mortality at 12.5 ppm [6]: > 80%
21 | C=CCO/N=C1\CCCc2ccc(-c3sc(-c4cccnc4)nc3C)nc21 [Compound 1.030] | > 80% | > 80% | mortality at 200 ppm [4]: ≥ 80%; mortality at 200 ppm [5]: ≥ 80%
22 | CN/N=C1\CCOc2ccc(-c3sc(-c4cccnc4)nc3C)nc21 [Compound 6.016] | > 80% |  | 
23 | Cc1nc(-c2cccnc2)sc1-c1ccc2c(n1)/C(=N/OCCCc1ccccc1)CCC2 [Compound 1.049] | > 80% | > 80% | 
24 | Cc1nc(-c2cccnc2)sc1-c1ccc2c(n1)/C(=N/OC(C)C)CCO2 [Compound 1.035] | > 80% | > 80% | 
25 | COC(=O)N/N=C1\CCCc2ccc(-c3sc(-c4cccnc4)nc3C)nc21 [Compound 6.011, Methyl N-[(E)-[2-[4-methyl-2-(3-pyridyl)thiazol-5-yl]-6,7-dihydro-5H-quinolin-8-ylidene]amino]carbamate] | > 80% | > 80% | 
26 | COC(=O)N/N=C1\CCOc2ccc(-c3sc(-c4cccnc4)nc3C)nc21 [Compound 6.018] |  | > 80% | 
27 | Cc1nc(-c2cccnc2)sc1-c1ccc2c(n1)/C(=N/OCCSc1ccc(F)cc1)CCC2 [Compound 1.065] |  |  | mortality at 200 ppm [7]: > 80%
28 | Cc1nc(-c2cccnc2)sc1-c1ccc2c(n1)/C(=N/OCc1ccc(Cl)cc1)CCC2 [Compound 1.062] | > 80% |  | 
29 | Cc1nc(-c2cccnc2)sc1-c1ccc2c(n1)/C(=N/OC(C)C)CCC2 [Compound 1.029] | > 80% | > 80% | 
30 | CN/N=C1\CCCc2ccc(-c3sc(-c4cccnc4)nc3C)nc21 [Compound 6.009] | > 80% |  | 
31 | Cc1nc(-c2cccnc2)sc1-c1ccc2c(n1)/C(=N/NCC(F)(F)F)CCC2 [Compound 6.032] | > 80% |  | 
32 | Cc1nc(-c2cccnc2)sc1-c1ccc2c(n1)/C(=N/OCCC1CCCN1C)CCC2 (stereo not drawn) [Compound 1.054] | > 80% |  | 
33 | Cc1nc(-c2cccnc2)sc1-c1ccc2c(n1)/C(=N/O)CCC2 (single isomer, unassigned) [Compound 1.025, 2-[4-methyl-2-(3-pyridyl)thiazol-5-yl]-6,7-dihydro-5H-quinolin-8-one oxime] | > 80% | > 80% | mortality at 200 ppm [4]: ≥ 80%
34 | C=CCO/N=C1\CCSc2sc(-c3sc(-c4cccnc4)nc3C)nc21 [Compound 3.053] | > 80% | > 80% | 
35 | Cc1nc(-c2cccnc2)sc1-c1ccc2c(n1)/C(=N/OCC#Cc1ccccc1)CCC2 [Compound 1.063] | > 80% |  | mortality at 200 ppm [3]: > 80%
36 | C=CCO/N=C1\CCOc2ccc(-c3sc(-c4cccnc4)nc3C)nc21 [Compound 1.036] | > 80% | > 80% | 
37 | Cc1nc(-c2cccnc2)sc1-c1ccc2c(n1)/C(=N/N(C)S(C)(=O)=O)CCO2 [Compound 6.021] |  | > 80% | 
38 | Cc1nc(-c2cccnc2)sc1-c1ccc2c(n1)/C(=N/NC(C)(C)C)CCC2 [Compound 6.035] | > 80% |  | 
